Assay results reported in PMC11933534, “Favipiravir induces HuNoV viral mutagenesis and infectivity loss with clinical improvement in immunocompromised patients” (Clinical Immunology (Orlando, Fla.), 2024).
Where “and” joins values, the source holds several entries; their conditions need not be identical. Identical values can stand only once. Like-named read-outs stand apart in the source and are kept apart here.

Columns and labels:
[1] = Favipiravir plasma trough level monitoring in patients (UPLC-MS/MS); assay type: in vivo, human
Procedure: Plasma was isolated from patient blood samples collected in EDTA. Frozen plasma samples were shipped to Laboratoire de Pharmacocinétique-Toxicologie, […] La Timone, Aix-Marseille Université, Marseille, France for favipiravir concentration analysis. The quantification of favipiravir in thawed plasma samples was performed by ultra-performance liquid chromatography coupled with tandem mass spectrometry (UPLC-MS/MS) method (UPLC-TQD, Waters, USA) with a lower limit of quantification of 0.5 μg/mL [34]. Validation of the assay was performed in accordance with the 2012 EMA guidelines and the ISO15189 guidelines. Model parameter estimation, model simulation properties (visual predictive check) and dose simulations were assessed using […]2 (2.0.6) and rxode2 (2.0.7) in R (4.2.0), as described elsewhere.

HuNoV [2] = assay: Clinical response of immunocompromised patients with chronic HuNoV infection; assay type: in vivo, human
Procedure: The Drugs and Therapeutics Committees at Great Ormond Street Hospital for Children, Great North Children's Hospital and Royal Free London NHS Trust approved treatment with favipiravir +/− nitazoxanide in four immunocompromised patients with life-threatening/severe chronic HuNoV infections. After obtaining informed consent, microbiological and pharmacological monitoring was performed. Informed consent was also obtained for microbiological monitoring in 2 untreated patients with HuNoV infections. Residual diagnostic viral samples were released for whole-genome sequencing through the UCL/UCLH Pathogen Biobank National Research Ethics Service Committee London Fulham (reference: [12]/LO/1089). For P1 specifically, residual stool samples were released for in vivo infectivity evaluation in the zebrafish model with research ethics approval from London Bloomsbury Research Ethics Committee (reference: 07/Q0508/43). This allows the use of pseudonymised residual diagnostic samples for research. An additional stool sample positive for HuNoV from the existing collection of samples of the University Hospital of Leuven (Belgium) was used (reference: G-2021–4376). Informed consent was obtained from the patient. […]

mouse norovirus = tested on: mouse norovirus; set-up: method as in PMID 22809499; details: 95%CI: 35–43 μg/mL; cited from earlier work
HuNoV [3] = tested on: HuNoV; set-up: method as in PMID 30485769; details: P2 (CVID); favipiravir 1200 mg 12-hourly, three courses; cited from earlier work
HuNoV [4] = tested on: HuNoV; set-up: method as in PMID 30485769; details: P2; favipiravir 1200 mg 12-hourly, three courses; cited from earlier work
[5] = set-up: method as in PMID 30485769; details: P2; favipiravir 1200 mg 12-hourly; caused treatment interruptions; cited from earlier work

NC(=O)c1nc(F)c[nH]c1=O [favipiravir]
Favipiravir plasma trough level ([1]; P1, 200 mg TDS (8-hourly, 51 mg/kg/day), average at month four): 10.0 µg/mL | Favipiravir plasma trough level ([1]; P1, 400 mg TDS (8-hourly, 97 mg/kg/day)): 154 µg/mL and 154.0 µg/mL | Favipiravir plasma trough level ([1]; P4, 400 mg TDS (8-hourly, 67 mg/kg/day)): 159 µg/mL and 159.0 µg/mL | Clinical response (HuNoV [2]; P3 (CID), favipiravir monotherapy): Weight gain, reduced stool output, improved enteral feeding | Patient weight after treatment (HuNoV [2]; P3, second course up to 12-hourly 800 mg, four months, from 28.9 kg): 33.3 kg | EC50 for mouse norovirus in vitro (mouse norovirus): EC50 Favipiravir for mouse norovirus (39 μg/mL [35]) | Clinical response (HuNoV [3]): Weight gain, reduced stool output, decreased adjunctive loperamide | Change in stool HuNoV viral load (HuNoV [4]): modest decrease in HuNoV VLs, but not viral clearance | Adverse event [5]: recurring transaminitis of undetermined aetiology
